According to patent US6262108A, “Medicinal use of cromoglycic acid compounds” (Kyoto Pharmaceutical Industries, Ltd., priority 1997, dated 2001):
“Also recorded” adds a separate entry of the source.

What was measured:
Acute Toxicity Test = conditions: mouse, in vivo; oral, suspension, male ICR mice
Description: The cromoglycic acid compound prepared in the above Example 1 was orally administered to male ICR mice (3 per group) in the form of a suspension.

[1] = system: type I and type IV allergic dermatitis; assay: Type I and Type IV allergic dermatitis (repeat application of DNFB) auricle swelling; assay type: in vivo, male BALB/c mice; conditions: 100 mg/kg orally twice a day; for Increase in thickness of auricle by repeat application of 0.2% DNFB solution: mean ± standard error
Description: According to the method of Nagai et al., (Naoki Inagaki and Hiroichi Nagai, The 8th Spring Meeting of Japanese Society of Allergology, 1996), the inhibitory action of diethyl acetoacetylcromoglycate on type I and type IV allergic dermatitis was examined.
According to this method, a type I allergic reaction is induced in addition to a type IV allergic reaction due to repeat contact sensitization with antigen. […] The method is described in detail in the following.
Male 6-week-old BALB/c mice (Japan SLC, Inc.) were divided into two groups of control group and administration group including 10 mice each. A 0.5% methylcellulose solution (10 ml/kg) was forcefully administered orally to the control group and diethyl acetoacetylcromoglycate (100 mg/kg) was forcefully administered orally to the administration group twice a day for 36 days for each group. The thickness of both auricles of each mouse was measured with a dial thickness gauge (Mitutoyo Co.) under ether anesthesia before initial administration on day 1 after administration. After the initial administration on day 8 of the administration, the thickness of both auricles of each mouse was measured with a dial thickness gauge under ether anesthesia. 0.2% Dinitrofluorobenzene (DNFB) dissolved in acetone-olive oil (mixing ratio 3:1) was applied by 25 μl to the left and right auricles. After 24 hours from the application, the thickness of both auricles of each mouse was measured under ether anesthesia with a dial thickness gauge. Thereafter, similar manipulation was repeated 4 times at a week interval. At the 5th application, the thickness of both auricles was also measured at 1 and 4 hours after the application.
Changes in the thickness of both auricles of each mouse were calculated from the measurement values of the thickness of the both auricles before the initial application. The average of changes in the thickness of the left and right auricles of each mouse was taken as the variation of the mouse.

[2] = system: Type IV allergic dermatitis; assay: Type IV allergic dermatitis (picryl chloride) auricle swelling; assay type: in vivo, male ICR mice
Experimental: Male 6-week-old ICR mice (Clea Japan, Inc.) were divided into two groups of control group and administration group containing 8-9 mice each. A 0.5% methylcellulose solution (10 ml/kg) was forcefully administered orally to the control group and diethyl acetoacetylcromoglycate (100 mg/kg) was forcefully administered orally to the administration group twice a day for 14 days for each group. After the initial administration at day 8 of the administration, pentobarbital sodium (55 mg/kg) was intraperitoneally administered to each mouse and the abdomen was shaved. 5% Picryl chloride (50 μl) dissolved in acetone-olive oil (mixing ratio, 1:4) was applied to the shaved portion (diameter about 2 cm). After the initial administration at day 5 after the application (day 12 of administration), all mice were anesthetized with ether and the thickness of both auricles was measured with a dial thickness gauge (Mitutoyo Co.). […] After 48 hours from this antigen challenge, the thickness of both auricles was measured with a dial thickness gauge under ether anesthesia.
The difference between the thickness of the auricle applied with the solvent and the thickness of the auricle applied with the antigen was measured for each mouse.

[3] = system: collagen-induced arthritis in mice; assay: Collagen-induced arthritis in mice: arthritis score; assay type: in vivo, male DBA/1J mice; conditions: for Arthritis score: mean ± standard error (n = 8-10)
Description: According to the method of Courtenay et al. (Courtenay, J. S. et al.: Immunization against heterologous type II collagen induces arthritis in mice. Nature, 283:666, 1980), male DBA/1J mice (CHARLES RIVER JAPAN INC.) were sensitized with bovine type II collagen to induce collagen-induced arthritis (rheumatoid arthritis). After the onset of arthritis, diethyl acetoacetylcromoglycate was orally administered and its inhibitory effect was examined. The method is detailed in the following.
Male DBA/1J mice (8-week-old) were pre-bred for one week and divided into the following 3 groups based on body weight (8-10 per group).
Bovine type II collagen (2 mg) was dissolved in 0.01M acetic acid (1 ml) and suspended in an equivalent amount of Freund's complete adjuvant, and 0.1 ml thereof was intradermally injected to the control group and treated group at 9 weeks of age at the base of the tail, followed by the second injection three weeks later at 12 weeks of age.
Starting from day 31 after the initial injection of collagen till the end of the treatment, the mice of each group were scored (arthritis score) twice a week for the levels of redness, swelling and stiffness of four limbs by a blind test method. The scores were taken according to a method similar to the method of Bjork et al. (Bjork, J. and Kleinau, S.: Paradoxical effects of LS-2616 (Linomide) treatment in the type II collagen arthritis model in mice, Agents and Actions, 27:319-321, 1989.), wherein normal was rated 0 point, inflammation on one digit was 1 point, inflammation on two or more digits and normal metacarpal region and metatarsal region of the limbs, or inflammation on one digit and metacarpal region and metatarsal region of the limbs was 2 points, and inflammation on digits and metacarpal region and metatarsal region of the limbs was 3 points, each mouse scoring 0 to 12 points in total.
The treatment was continued for 6 weeks from day 41 from the initial injection of collagen. […]

## CCOC(=O)c1cc(=O)c2c(OCC(COc3cccc4oc(C(=O)OCC)cc(=O)c34)OC(=O)CC(C)=O)cccc2o1 [Example 1, Diethyl Acetoacetylcromoglycate]
Acute Toxicity Test
  LD50: > 1000 mg/kg
[1]; 1 hr after 5th application (type I allergic reaction), control 0.098 ± 0.012, p < 0.05
  Increase in thickness of auricle by repeat application of 0.2% DNFB solution: 0.058 ± 0.007 mm
[1]; 4 hr after 5th application, control 0.063 ± 0.007
  Increase in thickness of auricle by repeat application of 0.2% DNFB solution: 0.056 ± 0.007 mm
[1]; 24 hr after 1st application, control 0.011 ± 0.002
  Increase in thickness of auricle by repeat application of 0.2% DNFB solution: 0.012 ± 0.002 mm
[1]; 24 hr after 2nd application, control 0.048 ± 0.004, p < 0.05
  Increase in thickness of auricle by repeat application of 0.2% DNFB solution: 0.037 ± 0.003 mm
[1]; 24 hr after 3rd application, control 0.092 ± 0.009, p < 0.01
  Increase in thickness of auricle by repeat application of 0.2% DNFB solution: 0.061 ± 0.005 mm
[1]; 24 hr after 4th application, control 0.141 ± 0.012, p < 0.01
  Increase in thickness of auricle by repeat application of 0.2% DNFB solution: 0.095 ± 0.009 mm
[1]; 24 hr after 5th application, control 0.182 ± 0.015, p < 0.01
  Increase in thickness of auricle by repeat application of 0.2% DNFB solution: 0.122 ± 0.010 mm
[1]; after the second application of DNFB, t-test with control group
  effect on swelling of the auricle (in words): significant inhibitory action on the swelling of the auricle after the second application
[1]; before 1st application, control 0.008 ± 0.003
  Increase in thickness of auricle by repeat application of 0.2% DNFB solution: 0.008 ± 0.002 mm
[1]; before 2nd application, control 0.033 ± 0.003
  Increase in thickness of auricle by repeat application of 0.2% DNFB solution: 0.029 ± 0.003 mm
[1]; before 3rd application, control 0.042 ± 0.005
  Increase in thickness of auricle by repeat application of 0.2% DNFB solution: 0.035 ± 0.003 mm
[1]; before 4th application, control 0.049 ± 0.004
  Increase in thickness of auricle by repeat application of 0.2% DNFB solution: 0.040 ± 0.005 mm
[1]; before 5th application, control 0.059 ± 0.006
  Increase in thickness of auricle by repeat application of 0.2% DNFB solution: 0.048 ± 0.005 mm
[1]; one hour after the fifth application of DNFB
  effect on swelling of the auricle, type I allergic reaction (in words): significant inhibitory action on the swelling of the auricle
[2]; 100 mg/kg orally twice a day for 14 days, 48 hr after applying 0.5% picryl chloride solution, mean ± standard error (n = 8-9), control 0.045 ± 0.003, p < 0.01
  Increase in thickness of auricle after application of antigen: 0.031 ± 0.003 mm
[2]; 100 mg/kg orally twice a day, 48 hours after picryl chloride challenge, t-test with control group
  effect on swelling of the auricle (in words): significant inhibitory action on the swelling of the auricle
[3]; 100 mg/kg/day orally, day 38 after start of treatment, U-test with control group
  effect on arthritis score (in words): inhibition of the symptoms of collagen-induced arthritis (rheumatoid arthritis); also recorded: significant improvement in the arthritis scores
[3]; 100 mg/kg/day orally, day 79 after initial injection of collagen (day 38 after starting treatment), control 10.70 ± 0.49, p < 0.01
  Arthritis score: 6.36 ± 1.30
[3]; day 38 after initial injection of collagen (3 days before treatment)
  Arthritis score: 1.80 ± 0.61
